Laboratory results published in patent US20240415837A1, “PHARMACOLOGIC MODULATION OF 5-FLUOROURACIL BY FOLINIC ACID AND VITAMIN B6 FOR THE TREATMENT OF PATIENTS WITH CARCINOMA” (priority 2021, published 2024).
Like-named read-outs stand apart in the source and are kept apart here.

Columns and labels:
[1] = molecular target: serine hydroxymethyl transferase (SHMT) apoenzyme; details: cited from earlier work
[2] = Erythrocyte pharmacokinetics of vitamin B6 after intraperitoneal high-dose pyridoxine or pyridoxamine in mice; details: erythrocytes, 450 mg/kg intraperitoneal
Method: Erythrocyte pyridoxamine 5′-phosphate (PMP) and pyridoxal 5′-phosphate (PLP) levels were measured in mice after intraperitoneal administration of high doses of pyridoxine (PN) or pyridoxamine (PM).

[3] = molecular target: T1, pyridoxine (pyridoxamine) 5′-phosphate oxidase (PNPOx) (Homo sapiens, UniProt Q9NVS9); details: read-out: Km of PNPOx; cited from earlier work
T1 sequence (Q9NVS9 1-261): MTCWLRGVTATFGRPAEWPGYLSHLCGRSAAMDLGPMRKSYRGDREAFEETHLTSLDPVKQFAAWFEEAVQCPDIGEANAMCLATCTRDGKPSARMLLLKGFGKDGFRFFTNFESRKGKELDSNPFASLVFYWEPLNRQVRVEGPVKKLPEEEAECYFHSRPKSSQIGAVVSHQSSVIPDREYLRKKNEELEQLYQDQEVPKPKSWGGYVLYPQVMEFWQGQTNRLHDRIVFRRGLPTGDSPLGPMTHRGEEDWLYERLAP

[4] = Pilot study in patients with advanced breast carcinoma: assessment of toxicity; details: human, in vivo
From the text: Doxorubicin comprised in FAC and AVCF regimens was suspended in case of ≥10% decrease in left ventricular ejection fraction from baseline value. […] Vinorelbine-containing chemotherapy (i.e., VCbF) was indicated instead of TCbF for patients who had severe hematopoietic impairment or prior taxane-induced toxicity and was used in substitution for TCbF in cases of paclitaxel-induced SPN occurring in patients throughout the study.
Patients with paclitaxel induced neuropathy, whose chemotherapy was either interrupted or pursued with VCbF had further progressive decrease of neurologic symptoms, and then disappearance occurring in most patients during follow-up. […] Except for interruption of paclitaxel as described above, no dose reductions of any cytostatic agent or increasing intervals between courses due to unusual or unexpectedly excessive hematologic and/or visceral toxicity were required. The single case of acute myelogenous leukemia carrying the 17q-chromosome aberration marker occurred 18 months after cessation of induction treatment in one patient who had prior genotoxic cytostatics and radiotherapy.

[5] = cited from earlier work

## Cc1ncc(COP(=O)(O)O)c(C=O)c1O [PLP, pyridoxal 5′-phosphate]
[1]; read-out: Kd of SHMT binding to cofactor, lower end of reported range
  Kd: ≥ 0.25 µM
[1]; read-out: Kd of SHMT binding to cofactor, upper end of reported range
  Kd: ≤ 27 µM

## Cc1ncc(CO)c(CN)c1O [PM, pyridoxamine]
[2]
  AUC 12 h of B6 vitamer: PLP: 14,988 nmol/L cells · 12 h
  AUC 12 h of B6 vitamer: PMP: 19,356 nmol/L cells · 12 h

## Cc1ncc(COP(=O)(O)O)c(CN)c1O [PMP, pyridoxamine 5′-phosphate]
[3]
  Km: 1 µM

## Cc1ncc(CO)c(CO)c1O [PN, pyridoxine]
[4]
  sensory peripheral neuropathy with high cumulative doses of pyridoxine, versus that expected with paclitaxel in TCbF: not accompanied with greater incidence, or higher grades, of sensory peripheral neuropathy
[5]; extremely high doses for long periods of time
  toxicity in man: sensory peripheral neuropathy
[5]; high doses used for treatment of various conditions
  safety in man: safe
[2]
  AUC 12 h of B6 vitamer: PLP: 2,231 nmol/L cells · 12 h
  AUC 12 h of B6 vitamer: PMP: 11,597 nmol/L cells · 12 h
